Where a SMILES comes first, the peptide text is derived from it. [ ]: non-standard residue; d: D form.
Key:
[1] = biological target: T1, FPRL1 (Homo sapiens, UniProt P25090); assay: [Ca2+]i increase in FPRL1-expressing RBL-2H3 cells (fura-2); format: cell-based
T1 construct: expressed in transfected cells; host or cells: RBL-2H3 (rat basophilic leukemia) cells, G418-selected
T1 sequence (P25090 1-351): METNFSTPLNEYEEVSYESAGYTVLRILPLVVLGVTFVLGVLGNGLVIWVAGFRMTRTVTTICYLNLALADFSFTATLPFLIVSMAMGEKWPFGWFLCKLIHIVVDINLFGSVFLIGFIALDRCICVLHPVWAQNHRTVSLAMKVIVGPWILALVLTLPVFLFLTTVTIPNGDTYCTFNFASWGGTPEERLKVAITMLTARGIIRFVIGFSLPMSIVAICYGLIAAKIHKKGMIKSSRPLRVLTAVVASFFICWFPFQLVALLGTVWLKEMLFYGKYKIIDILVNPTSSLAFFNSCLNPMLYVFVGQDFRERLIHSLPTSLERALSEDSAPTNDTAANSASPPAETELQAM

[2] = test system: CT26, colon carcinoma; assay: Tumor growth in CT26-injected Balb/c mice; format: in vivo; conditions: FIGS. 9A and 9B
Protocol: CT26, EL4 were maintained at 37° C. in a humidified 5% CO2 atmosphere in RPMA1640 medium supplemented with 20% (vol/vol) heat-inactivated fetal bovine serum. For animal experiments, the cells were passaged two to five times after re-growth from frozen stocks. Log phase CT26 cells were detached from tissue culture flasks with 0.25% trypsin and 0.03% EDTA. CT26 and EL4 were washed and resuspended in PBS immediately before injection.
In order to assess the antitumor effect of immuno-modulating peptide, Trp-Arg-Tyr-Met-Val-D-Met-CONH2, (WRYMVm; (SEQ ID NO: 4)), CT26, colon carcinoma was tested in Balb/c mice model. Tumor mass was measured in size every two days after 6 days from tumor cell inoculation.
To find the effective tumor-suppressing dose of WRYMVm, 0.1 μg/mouse, 0.25 μg/mouse, and 1 μg/mouse of WRYMVm were administered to CT26/Balb/c model. […] A similar phenomenon is easily found in chemotactic migration of leukocytes. In view of the fact that FPRL1, which is a target receptor for WRYMVm, is related to the chemotactic migration event, it is concluded that WRYMVm-induced antitumor effect might be derived from leukocyte infiltration event. Therefore, it is quite necessary to reveal the direct relationship between the WRYMVm-induced antitumor effect and the leukocyte infiltration event.

[3] = biological target: T1, FPRL1; assay: ERK phosphorylation in FPRL1-expressing RBL-2H3 cells (immunoblot); format: cell-based
Protocol: Cultured RBL-2H3 cells were aliquoted into 2×10^6 cells and stimulated with the indicated concentrations of WKYMVm and the peptides of the present invention for the indicated lengths of time. FPR- or FPRL1-expressing RBL-2H3 cells were stimulated with 1 μM WKYMVm for various periods of time (FIG. 3A). Two cells were preincubated with a vehicle or 100 ng/ml of PTX (24 hr), 50 μM of LY294002 (15 min), 5 μM of GFX (15 min), 10 μM BAPTA/AM (60 min), or 50 μM PD98059 (60 min) prior to 1 μM of WKYMVm treatment (FIG. 3B). FPR- or FPRL1-expressing RBL2H3 cells were stimulated with 10 μM of the peptides of the present invention for 2 min or 5 min, respectively (FIG. 3C).
After stimulation, the cells were washed with serum-free RPMI and lysed in a lysis buffer (20 mM Hepes, pH 7.2, 10% glycerol, 150 mM NaCl, 1% Triton X-100, 50 mM NaF, 1 mM Na3VO4, 10 μg/ml leupeptin, 10 μg/ml aprotinin, and 1 mM phenylmethylsulfonyl fluoride). The detergent-insoluble materials were pelleted by centrifugation (12,000×g, 15 min, at 4° C.), and the soluble supernatant fraction was removed and stored at −80° C. or used immediately. Protein concentrations in the lysates were determined using the Bradford protein assay reagent.
Each sample ([…] of protein) was subjected to 10% SDS-PAGE and phosphorylated ERK was determined by an immunoblot analysis with an anti-phospho-ERK antibody. Protein samples were prepared for electrophoresis by addition of a concentrated sample buffer. The portions in the samples were then separated by an 10% SDS-polyacrylamide gel using the buffer system described by Laemmli (17).
Following the electrophoresis, a western blot analysis with an anti-ERK2 antibody was performed to confirm that the same amounts of samples were used for the experiments. The proteins were blotted onto nitrocellulose membranes. The nitrocellulose membranes were then blocked by incubation with TBS (Tris-buffered saline, 0.05% Tween-20) containing 5% non-fat dry milk. Subsequently, the membranes were incubated with anti-phospho-ERK antibody, anti-phospho-Akt antibody or anti-Akt antibody washed with TBS. For a PKC translocation assay, an antibody for PKC isozyme-specific was incubated. Antigen-antibody complexes were visualized after incubating the membrane with a 1:5000 diluted goat anti-rabbit IgG or goat anti-mouse IgG antibody coupled to horseradish peroxidase and using the enhanced chemiluminescence detection system.

## CSCC[C@H](NC(=O)CNC(=O)[C@H](CCCCN)NC(=O)[C@@H](N)Cc1c[nH]c2ccccc12)C(=O)N[C@H](C(=O)N[C@H](CCSC)C(N)=O)C(C)C [WKGMVm-NH2, Trp-Lys-Gly-Met-Val-D-Met-NH2] (H-WKGMV[dM]-NH2; N-terminus assumed)
[1]
  [Ca^2+]i increasing activity: showed [Ca^2+]i-increasing activity in FPRL1 cells, with a little lower affinity to FPRL1

## CSCC[C@H](NC(=O)[C@H](CCCNC(=N)N)NC(=O)[C@H](CCCCN)NC(=O)[C@@H](N)Cc1c[nH]c2ccccc12)C(=O)N[C@H](C(=O)N[C@H](CCSC)C(N)=O)C(C)C [WKRMVm-NH2, Trp-Lys-Arg-Met-Val-D-Met-NH2] (H-WKRMV[dM]-NH2; N-terminus assumed)
[2]
  tumor growth in CT26-injected mice (figure legend): attenuates tumor growth

## CSCC[C@H](NC(=O)[C@H](Cc1ccc(O)cc1)NC(=O)[C@H](CCCCN)NC(=O)[C@@H](N)Cc1c[nH]c2ccccc12)C(=O)N[C@H](C(=O)N[C@H](CCSC)C(N)=O)C(C)C [WKYMVm-NH2, Trp-Lys-Tyr-Met-Val-D-Met-NH2, reference compound]
[3]; 1 μM WKYMVm
  time of maximal ERKs activity after peptide treatment: 5 min
[3]; 10 μM peptides 5 min (WKYMVm time course 1 μM)
  ERKs phosphorylation/activation: induced transient activation of ERKs
[1]; data not shown
  concentration showing maximal [Ca^2+]i increase activity: 10 nM
[1]; fura-2 loaded
  EC50 (nM), intracellular calcium increase: inactive

From patent US7517857B2, “Immune-modulating peptide” (POSCO, priority 2002, dated 2009)
